What was measured:
Phakopsora Pachyrhizi = assay: Fungicidal activity against Phakopsora pachyrhizi / soybean / leaf disc preventative (Asian soybean rust); format: in vivo; conditions: foliar, 200 ppm in the applied formulation, soybean leaf disks, compared to untreated control leaf disks, read-out: disease control
How it was run: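 Scored 12 to 14 days post-application as percent control relative to untreated check discs, rust spores were sprayed under the disc one day after compound treatment. Incubation: 20°C, 75% rh, first 24–36 h in darkness, then 12 h daily light; discs kept on water agar.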

[1] = tested on: Puccinia recondita f. Sp. Tritici; assay: Fungicidal activity against Puccinia recondita f. sp. tritici / wheat / leaf disc preventative (brown rust); format: in vivo; conditions: foliar, 200 ppm in the applied formulation, wheat leaf segments, preventative, compared to untreated control leaf disks, read-out: disease control
How it was run: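 Percent disease control relative to untreated check segments is scored once disease develops, 7 to 9 days after application. Wheat cv. Kanzler segments receive compound spray (200 ppm in formulation) one day before spore inoculation, then sit at 19° C. and 75% rh under 12 h light/12 h dark.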

[2] = tested on: Puccinia recondita f. Sp. Tritici; assay: Fungicidal activity against Puccinia recondita f. sp. tritici / wheat / leaf disc curative (brown rust); format: in vivo; conditions: foliar, 24 h, 200 ppm in the applied formulation, wheat leaf segments, curative (applied 1 day after inoculation), compared to untreated control leaf disks, read-out: disease control
How it was run: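 Curative leaf-segment test: compound diluted in water applied 1 day after spore inoculation of cv. Kanzler wheat segments on agar. Conditions 19° C, 75% RH, 12 h/12 h light cycle. Read-out: % disease control relative to untreated check, 6 to 8 days after application.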

[3] = tested on: Glomerella lagenarium (Colletotrichum lagenarium); assay: Fungicidal activity against Glomerella lagenarium (Colletotrichum lagenarium) liquid culture / cucumber / preventative (anthracnose); format: cell-based; conditions: Colletotrichum orbiculare; 20 ppm in the applied formulation; liquid culture (PDB), growth inhibition measured photometrically after 3 to 4 days; compared to untreated control; read-out: disease control
How it was run: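 Percent activity against the untreated check was derived from photometric growth measurements made 2 to 7 days after conidia in potato dextrose broth were combined with compound at 20 ppm. Cultures were kept dark at 24 °C and 96% humidity.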

CCON(Cc1ccc(-c2noc(C(F)(F)F)n2)cc1)C(=O)C1(C)COC1 [Compound 1.623, N-ethoxy-3-methyl-N-[[4-[5-(trifluoromethyl)-1,2,4-oxadiazol-3-yl]phenyl]methyl]-oxetane-3-carboxamide]
≥ 80%: pest or weed control at 200 ppm (Phakopsora Pachyrhizi) | pest or weed control at 200 ppm [1] | pest or weed control at 200 ppm [2] | inhibition of growth at 20 ppm [3]

COCCN(Cc1ccc(-c2noc(C(F)(F)F)n2)cc1)C(=O)C1CCCCO1 (stereo not shown) [Compound 1.324, N-(2-methoxyethyl)-N-[[4-[5-(trifluoromethyl)-1,2,4-oxadiazol-3-yl]phenyl]methyl]-tetrahydropyran-2-carboxamide]
≥ 80%: pest or weed control at 200 ppm (Phakopsora Pachyrhizi) | pest or weed control at 200 ppm [1] | pest or weed control at 200 ppm [2] | inhibition of growth at 20 ppm [3]

O=C(C1CCCO1)N(CCO)Cc1ccc(-c2noc(C(F)(F)F)n2)cc1 (stereo not shown) [Compound 1.726, N-(2-hydroxyethyl)-N-[[4-[5-(trifluoromethyl)-1,2,4-oxadiazol-3-yl]phenyl]methyl]-tetrahydrofuran-2-carboxamido]
≥ 80%: pest or weed control at 200 ppm (Phakopsora Pachyrhizi) | pest or weed control at 200 ppm [1] | pest or weed control at 200 ppm [2] | inhibition of growth at 20 ppm [3]

CCC(C)C(=O)N(Cc1ccc(-c2noc(C(F)(F)F)n2)cc1)OC (stereo not shown) [Compound 1.48, N-methoxy-2-methyl-N-[[4-[5-(trifluoromethyl)-1,2,4-oxadiazol-3-yl]phenyl]methyl]-butanamide]
≥ 80%: pest or weed control at 200 ppm (Phakopsora Pachyrhizi) | pest or weed control at 200 ppm [1] | pest or weed control at 200 ppm [2] | inhibition of growth at 20 ppm [3]

C=CCN(Cc1ccc(-c2noc(C(F)(F)F)n2)cc1)C(=O)C1(C)COC1 [Compound 1.488, N-allyl-3-methyl-N-[[4-[5-(trifluoromethyl)-1,2,4-oxadiazol-3-yl]phenyl]methyl]-oxetane-3-carboxamide]
≥ 80%: pest or weed control at 200 ppm (Phakopsora Pachyrhizi) | pest or weed control at 200 ppm [1] | pest or weed control at 200 ppm [2] | inhibition of growth at 20 ppm [3]

O=C(C1CCC1)N(Cc1ccc(-c2noc(C(F)(F)F)n2)cc1)C1COC1 [Compound 1.742, N-(oxetan-3-yl)-N-[[4-[5-(trifluoromethyl)-1,2,4-oxadiazol-3-yl]phenyl]methyl]-cyclobutane-carboxamide]
≥ 80%: pest or weed control at 200 ppm (Phakopsora Pachyrhizi) | pest or weed control at 200 ppm [1] | pest or weed control at 200 ppm [2] | inhibition of growth at 20 ppm [3]

CCON(Cc1ccc(-c2noc(C(F)(F)F)n2)cc1)C(=O)C(CC)COC (stereo not shown) [Compound 1.624, N-ethoxy-2-(methoxymethyl)-N-[[4-[5-(trifluoromethyl)-1,2,4-oxadiazol-3-yl]phenyl]methyl]-butanamide]
≥ 80%: pest or weed control at 200 ppm (Phakopsora Pachyrhizi) | pest or weed control at 200 ppm [1] | pest or weed control at 200 ppm [2] | inhibition of growth at 20 ppm [3]

O=C(C1CCOC1)N(Cc1ccc(-c2noc(C(F)(F)F)n2)cc1)CC(F)(F)F (stereo not shown) [Compound 1.692, N-(2.2.2-trifluoroethyl)-N-[[4-[5-(trifluoromethyl)-1,2,4-oxadiazol-3-yl]phenyl]methyl]-tetrahydrofuran-3-carboxamide]
≥ 80%: pest or weed control at 200 ppm (Phakopsora Pachyrhizi) | pest or weed control at 200 ppm [1] | pest or weed control at 200 ppm [2] | inhibition of growth at 20 ppm [3]

CCC(C)N(Cc1ccc(-c2noc(C(F)(F)F)n2)cc1)C(=O)C1CCCO1 (stereo not shown) [Compound 1.398, N-sec-butyl-N-[[4-[5-(trifluoromethyl)-1,2,4-oxadiazol-3-yl]phenyl]methyl]-tetrahydrofuran-2-carboxamide]
≥ 80%: pest or weed control at 200 ppm (Phakopsora Pachyrhizi) | pest or weed control at 200 ppm [1] | pest or weed control at 200 ppm [2] | inhibition of growth at 20 ppm [3]

CCCN(Cc1ccc(-c2noc(C(F)(F)F)n2)cc1)C(=O)CCCOC [Compound 1.662, 4-methoxy-N-propyl-N-[[4-[5-(trifluoromethyl)-1,2,4-oxadiazol-3-yl]phenyl]methyl]-butanamide]
≥ 80%: pest or weed control at 200 ppm (Phakopsora Pachyrhizi) | pest or weed control at 200 ppm [1] | pest or weed control at 200 ppm [2] | inhibition of growth at 20 ppm [3]

CC(C)N(Cc1ccc(-c2noc(C(F)(F)F)n2)cc1)C(=O)CC(F)(F)F [Compound 1.686, 3,3,3-trifluoro-N-isopropyl-N-[[4-[5-(trifluoromethyl)-1,2,4-oxadiazol-3-yl]phenyl]methyl]-propanamide]
≥ 80%: pest or weed control at 200 ppm (Phakopsora Pachyrhizi) | pest or weed control at 200 ppm [1] | pest or weed control at 200 ppm [2] | inhibition of growth at 20 ppm [3]

C=CCCC(=O)N(Cc1ccc(-c2noc(C(F)(F)F)n2)cc1)C1CC1 [Compound 1.91, N-cyclopropyl-N-[[4-[5-(trifluoromethyl)-1,2,4-oxadiazol-3-yl]phenyl]methyl]-pent-4-enamide]
≥ 80%: pest or weed control at 200 ppm (Phakopsora Pachyrhizi) | pest or weed control at 200 ppm [1] | pest or weed control at 200 ppm [2] | inhibition of growth at 20 ppm [3]

C#CCCC(=O)N(Cc1ccc(-c2noc(C(F)(F)F)n2)cc1)C1CC1 [Compound 1.86, N-cyclopropyl-N-[[4-[5-(trifluoromethyl)-1,2,4-oxadiazol-3-yl]phenyl]methyl]-pent-4-ynamide]
≥ 80%: pest or weed control at 200 ppm (Phakopsora Pachyrhizi) | pest or weed control at 200 ppm [1] | pest or weed control at 200 ppm [2] | inhibition of growth at 20 ppm [3]

CON(Cc1ccc(-c2noc(C(F)(F)F)n2)cc1)C(=O)C1CC1C (stereo not shown) [Compound 1.40, N-methoxy-2-methyl-N-[[4-[5-(trifluoromethyl)-1,2,4-oxadiazol-3-yl]phenyl]methyl]-cyclopropane-carboxamide]
≥ 80%: pest or weed control at 200 ppm (Phakopsora Pachyrhizi) | pest or weed control at 200 ppm [1] | pest or weed control at 200 ppm [2] | inhibition of growth at 20 ppm [3]

COCC(=O)N(CCO)Cc1ccc(-c2noc(C(F)(F)F)n2)cc1 [Compound 1.610, N-(2-hydroxyethyl)-2-methoxy-N-[[4-[5-(trifluoromethyl)-1,2,4-oxadiazol-3-yl]phenyl]methyl]-acetamide]
≥ 80%: pest or weed control at 200 ppm (Phakopsora Pachyrhizi) | pest or weed control at 200 ppm [1] | pest or weed control at 200 ppm [2] | inhibition of growth at 20 ppm [3]

CON(Cc1ccc(-c2noc(C(F)(F)F)n2)cc1)C(=O)C1CSC1 [Compound 1.30, N-methoxy-N-[[4-[5-(trifluoromethyl)-1,2,4-oxadiazol-3-yl]phenyl]methyl]-thietane-3-carboxamide]
≥ 80%: pest or weed control at 200 ppm (Phakopsora Pachyrhizi) | pest or weed control at 200 ppm [1] | pest or weed control at 200 ppm [2] | inhibition of growth at 20 ppm [3]

CC1CC1C(=O)N(CCO)Cc1ccc(-c2noc(C(F)(F)F)n2)cc1 (stereo not shown) [Compound 1.717, N-(2-hydroxyethyl)-2-methyl-N-[[4-[5-(trifluoromethyl)-1,2,4-oxadiazol-3-yl]phenyl]methyl]-cyclopropane-carboxamide]
≥ 80%: pest or weed control at 200 ppm (Phakopsora Pachyrhizi) | pest or weed control at 200 ppm [1] | pest or weed control at 200 ppm [2] | inhibition of growth at 20 ppm [3]

CON(Cc1ccc(-c2noc(C(F)(F)F)n2)cc1)C(=O)C(C)(C)OC [Compound 1.779, N,2-dimethoxy-2-methyl-N-[[4-[5-(trifluoromethyl)-1,2,4-oxadiazol-3-yl]phenyl]methyl]-propanamide]
≥ 80%: pest or weed control at 200 ppm (Phakopsora Pachyrhizi) | pest or weed control at 200 ppm [1] | pest or weed control at 200 ppm [2] | inhibition of growth at 20 ppm [3]

C#CCCC(=O)N(CC#C)Cc1ccc(-c2noc(C(F)(F)F)n2)cc1 [Compound 1.154, N-prop-2-ynyl-N-[[4-[5-(trifluoromethyl)-1,2.4-oxadiazol-3-yl]phenyl]methyl]-pent-4-ynamide]
≥ 80%: pest or weed control at 200 ppm (Phakopsora Pachyrhizi) | pest or weed control at 200 ppm [1] | pest or weed control at 200 ppm [2] | inhibition of growth at 20 ppm [3]

COCCN(Cc1ccc(-c2noc(C(F)(F)F)n2)cc1)C(=O)C1(C)CC1 [Compound 1.344, N-(2-methoxyethyl)-1-methyl-N-[[4-[5-(trifluoromethyl)-1,2,4-oxadiazol-3-yl]phenyl]methyl]-cyclopropane-carboxamide]
≥ 80%: pest or weed control at 200 ppm (Phakopsora Pachyrhizi) | pest or weed control at 200 ppm [1] | pest or weed control at 200 ppm [2] | inhibition of growth at 20 ppm [3]

CCCN(Cc1ccc(-c2noc(C(F)(F)F)n2)cc1)C(=O)CC#N [Compound 1.664, 2-cyano-N-propyl-N-[[4-[5-(trifluoromethyl)-1,2,4-oxadiazol-3-yl]phenyl]methyl]-acetamide]
≥ 80%: pest or weed control at 200 ppm (Phakopsora Pachyrhizi) | pest or weed control at 200 ppm [1] | pest or weed control at 200 ppm [2] | inhibition of growth at 20 ppm [3]

O=C(CC1CC1)N(O)Cc1ccc(-c2noc(C(F)(F)F)n2)cc1 [Compound 1.774, 2-cyclopropyl-N-hydroxy-N-[[4-[5-(trifluoromethyl)-1,2,4-oxadiazol-3-yl]phenyl]methyl]-acetamide]
≥ 80%: pest or weed control at 200 ppm (Phakopsora Pachyrhizi) | pest or weed control at 200 ppm [1] | pest or weed control at 200 ppm [2] | inhibition of growth at 20 ppm [3]

Source: patent US11180462B2, “Microbiocidal oxadiazole derivatives” (SYNGENTA PARTICIPATIONS AG, priority 2015, dated 2021)
